Measurements published in patent publication US20220135678A1, “METHODS AND COMPOSITIONS TO IMPROVE THE SAFETY AND EFFICACY OF CELLULAR THERAPIES” (University of Southern California, priority 2019, published 2022).
Values belong to the compound of their own block, whether it stands above or below them.

Experiments:
[1] = system: CD33 on hematopoietic stem cells and progenitor cells; experiment: HSPC expressing AMR-dTAG or AMR-ShieldTag targeting CD33, in vitro; format: cell-based
[2] = system: Molm14 AML leukemia cells; experiment: AMR-dTAG or AMR-ShieldTag HSPC transplanted into NSG mice with Molm14 cells, CD33 CAR-T; format: in vivo
Source text: (§1) The transduced cells are also transplanted into NSG mice along with Molm14 AML leukemia cells.
as §1

[3] = system: CD19 on RAJI (CD19+) cells; experiment: CD19 surface expression on transduced RAJI cells, flow cytometry with PE-conjugated FMC63 antibody (antigen masking); format: cell-based
Source text: A panel of CARs targeting CD19 were generated using antigen binding domains derived from FMC63 (SEQ ID NO: 205), hu-mROO5-1 (SEQ ID NO: 211) and CD19-MM (SEQ ID NO: 209) scFVs respectively. […] The constructs also co-expressed a puromycin resistance gene (PAC). The lentiviral vectors encoding the different CAR constructs were used to infect RAJI (CD19+) cells. The cells were selected with puromycin. Flow cytometry with PE-conjugated FMC63 antibody was used to detect the expression of CD19 on the surface of the CAR-expressing cells.
In another exemplary experiment, the experiment is repeated with lentiviral vectors encoding FMC63- or hum-mROO5-1-based cTCR, Ab-TCR, TFPαβ and TFPγδ.
RAJI cells were infected with the following lentiviral vectors encoding antigen masking receptors targeting CD19 and carrying protein degradation motifs FKBP12. […] RAJI cells were selected with puromycin and examined for CD19 expression by cell surface staining with FMC63 antibody. […] Subsequently, the cells were treated with dTAG-13 (100 nM) for 24-72 h to induce degradation of the AMR.

RAJI cells = experiment: Killing of AMR-expressing RAJI cells by CD19-CAR-T cells or Blinatumomab; format: cell-based; conditions: exposure to dTAG-13
Procedure: T cells mediated induction of lysis of target cells was assayed by increase of luciferase activity as measured by BioTek synergy plate reader by directly injecting 0.5×CTZ assay buffer containing native coeloentrazine (Nanaolight).

CD19 (on RAJI cells) [4] = biological target: CD19 (on RAJI cells) (UniProt P15391); experiment: cell surface staining of control RAJI cells with FMC63 antibody, flow cytometry
[5] = system: NALM6 (B cell acute lymphocytic leukemia cells); experiment: Infection of NALM6 cells by lentivirus encoding a non-FMC63 CD19 CAR; format: cell-based; conditions: CAR scFV derived from an antibody other than FMC63
Procedure: The experiment in the preceding example is repeated using a lentiviral vector encoding a CD19 CAR (SEQ ID NO: 11920) comprising a scFV derived from an antibody other than FMC63 as its antigen-binding domain. The CAR is cloned in the pCCLc-MNDU3-WPRE lentiviral vector (SEQ ID NO: 3) and the resulting vector is packaged using VSVG as described in the preceding example. […] In contrast, incubation with Rituximab, a CD20 antibody, had no effect.

[6] = Patient with cytokine release syndrome and neurological complications after haploidentical stem cell transplant; format: in vivo, human
Procedure: A patient with myelofibroris receives haploidentical peripheral blood stem cell transplant using their child as a donor. The patient receives reduced intensity conditioning with Melphalan (100 mg/m2 on day −6), Fludarabine (25 mg/m2×4 on days −5 to −2) and total body irradiation (TBI) of 200 cGy on day −1. Following infusion of haploidentical stem cells on Day 0, the patient receives post-transplant Cyclophosphamide 50 mg/kg×2 on days+3 and +4 and intravenous hydration with normal saline at rate of 250 ml/h for 24 hours after the completion of cyclophosphamide.

CD19 (on RAJI cells) [7] = biological target: CD19 (on RAJI cells) (UniProt P15391); experiment: cell-based or functional assay

Sequence of UniProt P15391 (P15391 20-556 limits assumed): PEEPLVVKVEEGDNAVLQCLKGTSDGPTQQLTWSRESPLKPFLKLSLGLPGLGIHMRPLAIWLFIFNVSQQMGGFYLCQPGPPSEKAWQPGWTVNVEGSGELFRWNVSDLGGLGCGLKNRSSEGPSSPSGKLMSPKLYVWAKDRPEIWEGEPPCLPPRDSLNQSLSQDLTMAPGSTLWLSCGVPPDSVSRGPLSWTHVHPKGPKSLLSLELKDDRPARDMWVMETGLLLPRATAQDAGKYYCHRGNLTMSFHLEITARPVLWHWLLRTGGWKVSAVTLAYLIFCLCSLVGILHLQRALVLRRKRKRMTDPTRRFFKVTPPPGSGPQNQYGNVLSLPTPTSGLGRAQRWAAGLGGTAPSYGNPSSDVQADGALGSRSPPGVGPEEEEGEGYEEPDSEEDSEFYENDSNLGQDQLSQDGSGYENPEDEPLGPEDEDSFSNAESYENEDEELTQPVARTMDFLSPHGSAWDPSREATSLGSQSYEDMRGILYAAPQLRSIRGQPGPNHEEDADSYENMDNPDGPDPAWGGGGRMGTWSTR

Compound: CC[C@H](C(=O)N1CCCC[C@H]1C(=O)O[C@H](CCc1ccc(OC)c(OC)c1)c1cccc(OCCN2CCOCC2)c1)c1cc(OC)c(OC)c(OC)c1 [Shield-1]
- AMR fusion protein after ligand treatment is stopped, in vitro ([1]; Shield-1 treatment stopped): degradation of AMR fusion protein
- CD33 AMR-ShieldTag fusion protein in animals after ligand treatment is stopped ([2]; Shield-1 treatment stopped): degradation of the CD33 AMR-ShieldTag fusion protein

Compound: CC[C@H](C(=O)N1CCCC[C@H]1C(=O)O[C@H](CCc1ccc(OC)c(OC)c1)c1ccccc1OCC(=O)NCCCCCCOc1cccc2c1C(=O)N(C1CCC(=O)NC1=O)C2=O)c1cc(OC)c(OC)c(OC)c1 (some centres unmarked) [dTAG-13]
- induction of CD19 expression with increasing concentration ([3]; 1 pM to 100 nM): dose dependent induction
- CD19 expression on AMR-expressing RAJI cells after ligand ([3]; 100 nM for 24-72 h, FMC63-PE staining, before treatment […]): 68.98%
- killing of AMR-expressing RAJI cells by CD19-CAR-T cells or Blinatumomab upon exposure to ligand (RAJI cells): sensitized
- AMR fusion protein after ligand treatment in vitro ([1]; 100 nM): degradation of AMR fusion protein
- AMR-dTAG fusion protein in animals after ligand ([2]; 25 mg/kg daily): degradation of the AMR-dTAG fusion protein

- % of control RAJI cells stained for CD19 by FMC63 antibody (CD19 (on RAJI cells) [4]): 99.2%
Compound: FMC63-PE mouse monoclonal antibody

Compound: Rituximab: a CD20 antibody
- infection of NALM6 by the CD19 CAR (SEQ ID NO: 11920) [5]: no effect

Compound: Tocilizumab: administered 600 mg i.v. for cytokine release syndrome
- blood pressure ([6]; 600 mg i.v. on day 5 after transplantation, patient with CRS after haploidentical stem cell transplant): stabilization of blood pressure
- neurological / mental status ([6]; after Tocilizumab 600 mg i.v. on day 5 after transplantation): continues to have neurological deterioration

- % EGFP + RAJI Cells (infection with CD19 CAR lentivirus after incubation with Control IgG-PE) (CD19 (on RAJI cells) [7]): 29.6%
- % EGFP + RAJI Cells (infection with CD19 CAR lentivirus after incubation with control IgG) (CD19 (on RAJI cells) [7]): 43.3%
- % EGFP + RAJI Cells (infection with the negative control MSLN-237-HL mesothelin CAR lentivirus after incubation with Control IgG-PE) (CD19 (on RAJI cells) [7]): 20.4%
Compound: isotype control mouse IgG (antibody)
